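In this assay, cells in 96-well plates receive the compound at five concentrations for 48 hours. Endpoints are linearly interpolated between the surrounding concentrations. TGI: total growth inhibition.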

Among the test systems are DU-145 prostate; A549 NSCLC; CAKI-1 renal; HOP-62 NSCLC; MDA-N; MALME-3M melanoma; BT-549 breast; NCI-H522 lung; NCI-H226 lung; SR leukemia; HCT-15 colon; NCI-H460 lung; SNB-75 CNS; T-47D breast; MDA-MB-435; OVCAR-5 ovarian; HS 578T breast; K-562 leukemia; SF-539 CNS; SF-295 CNS.
Common to all, as to assay: DTP human tumour cell line panel, 48 h

For the molecule `O=C1CCCCC1C(O)(C(F)(F)F)C(F)(F)Cl` (stereo not given), the TGI in the assay with DU-145 prostate, with A549 NSCLC, in the assay with CAKI-1 renal, in the assay with HOP-62 NSCLC, with MDA-N and in the assay on MALME-3M melanoma was > 10 µM in each case. The TGI with BT-549 breast, in the assay on NCI-H522 lung, with NCI-H226 lung, in the assay with SR leukemia, in the assay with HCT-15 colon and with NCI-H460 lung was > 10 µM each time. Besides, the TGI in the assay with SNB-75 CNS, in the assay on T-47D breast, in the assay with MDA-MB-435, in the assay on OVCAR-5 ovarian, with HS 578T breast and in the assay with K-562 leukemia was > 10 µM in each case. In addition, the TGI with SF-539 CNS and in the assay on SF-295 CNS was > 10 µM in each case.
As for `CCCn1c(=O)c2nn3c(=O)n(CCC)c(=O)c3nn2c1=O`, the TGI with DU-145 prostate, in the assay on A549 NSCLC, in the assay on CAKI-1 renal, with HOP-62 NSCLC, in the assay on MDA-N and in the assay on MALME-3M melanoma was > 100 µM throughout. Also, the TGI with BT-549 breast, in the assay with NCI-H522 lung, with NCI-H226 lung, in the assay with SR leukemia, with HCT-15 colon and with NCI-H460 lung was > 100 µM each time. In addition, the TGI in the assay on SNB-75 CNS, in the assay with T-47D breast, in the assay on MDA-MB-435, with OVCAR-5 ovarian, with HS 578T breast and with K-562 leukemia was > 100 µM each time. In addition, the TGI with SF-539 CNS and in the assay with SF-295 CNS was > 100 µM each time.
Consider `COc1ccccc1N1C(=O)CSC1c1cc(OC)c(OC)c(OC)c1` (stereo not given), for which the TGI in the assay on DU-145 prostate is > 100 µM; with A549 NSCLC, > 100 µM; in the assay with CAKI-1 renal it was > 100 µM; with HOP-62 NSCLC it was > 100 µM; with MDA-N, 44.7 µM; with MALME-3M melanoma, > 100 µM. For the same molecule, the total growth inhibition concentration (TGI) in the assay on BT-549 breast is 98.3 µM; in the assay on NCI-H522 lung, > 76.8 µM; in the assay on NCI-H226 lung, > 100 µM; with SR leukemia it was > 100 µM; with HCT-15 colon it was > 100 µM; in the assay on NCI-H460 lung, > 100 µM. Moreover, the TGI with SNB-75 CNS is > 100 µM; with T-47D breast, > 38.3 µM; with MDA-MB-435, 40 µM; in the assay on OVCAR-5 ovarian it was > 100 µM; in the assay on HS 578T breast, > 100 µM; in the assay with K-562 leukemia, > 100 µM. In addition, the TGI in the assay on SF-539 CNS and in the assay on SF-295 CNS was > 100 µM each time.
For `O=C(/C=C/c1ccc(O)c(O)c1)NC(COC(=O)/C=C/c1ccc(O)c(O)c1)C(=O)O` (stereo not given), the concentration for total growth inhibition (TGI) in the assay on DU-145 prostate, in the assay with A549 NSCLC, in the assay on CAKI-1 renal, in the assay with HOP-62 NSCLC, with MDA-N and in the assay on MALME-3M melanoma was > 100 µM each time. Further, the TGI in the assay on BT-549 breast, in the assay with NCI-H522 lung, in the assay on NCI-H226 lung, with SR leukemia, with HCT-15 colon and in the assay with NCI-H460 lung was > 100 µM each time. Moreover, the TGI with SNB-75 CNS, with T-47D breast, in the assay on MDA-MB-435, in the assay with OVCAR-5 ovarian, in the assay on HS 578T breast and in the assay with K-562 leukemia was > 100 µM each time. Moreover, the concentration for total growth inhibition (TGI) in the assay on SF-539 CNS and with SF-295 CNS was > 100 µM throughout.
For `CCCCCCCC(CC(=O)NC(CO)C(=O)NC(CO)CC(C)C)OC(=O)CC(CCCCCCC)OC(=O)CC(CCCCCCC)OC1OC(C)C(O)C(OC2OC(C)C(O)C(O)C2O)C1O` (stereo not given), the TGI turned out to be 25.3 µM in the assay with DU-145 prostate; 31.7 µM with A549 NSCLC; 33.2 µM in the assay with CAKI-1 renal; 35 µM in the assay on HOP-62 NSCLC; 20.5 µM in the assay on MDA-N; 24 µM with MALME-3M melanoma. The TGI is 28.8 µM in the assay with BT-549 breast; 29.5 µM in the assay on NCI-H522 lung; 38.7 µM with NCI-H226 lung; 15.9 µM in the assay with SR leukemia; 34.6 µM in the assay on HCT-15 colon; 19.1 µM with NCI-H460 lung. In addition, the TGI with SNB-75 CNS is 24.9 µM; with T-47D breast, 26.6 µM; with MDA-MB-435, 19.5 µM; with OVCAR-5 ovarian, 26 µM; with HS 578T breast, 22.7 µM; in the assay with K-562 leukemia, 25.7 µM. The TGI in the assay with SF-539 CNS stood at 24.7 µM; with SF-295 CNS it was 27.1 µM.
For `CC(=O)OCC1OC(OC(C)=O)C(Nc2ncc(-c3ccc(C)cc3)s2)C(OC(C)=O)C1OC(C)=O` (stereo not given), the TGI in the assay with DU-145 prostate is > 100 µM; in the assay with A549 NSCLC, 47.9 µM; in the assay on CAKI-1 renal, 31.2 µM; in the assay with HOP-62 NSCLC, 42.2 µM; in the assay on MDA-N, 35.3 µM; in the assay on MALME-3M melanoma it was 41.5 µM. For the same molecule, the TGI is 36.7 µM in the assay with BT-549 breast; 34.3 µM with NCI-H522 lung; 50.4 µM with NCI-H226 lung; > 100 µM in the assay on SR leukemia; 60 µM in the assay with HCT-15 colon; 40.7 µM with NCI-H460 lung. Moreover, the TGI is 37.6 µM in the assay on SNB-75 CNS; 48.8 µM in the assay with T-47D breast; 30.3 µM in the assay with MDA-MB-435; > 100 µM with OVCAR-5 ovarian; 69.5 µM in the assay with HS 578T breast; 65.8 µM in the assay with K-562 leukemia. The concentration for total growth inhibition (TGI) with SF-539 CNS stood at 37.7 µM; in the assay on SF-295 CNS, 76.3 µM.
Turning to `C=C1CC(C)(COc2cc(=O)oc3ccccc23)OC1=O` (stereo not given), the TGI in the assay with DU-145 prostate came to 19 µM; with A549 NSCLC, 28.2 µM; in the assay with CAKI-1 renal, 6.32 µM; with HOP-62 NSCLC it was 42.1 µM; in the assay with MDA-N it was 16.3 µM; in the assay on MALME-3M melanoma it was 6.6 µM. Besides, the TGI with BT-549 breast came out at 7.89 µM; in the assay on NCI-H522 lung, 5.2 µM; in the assay with NCI-H226 lung, 29.1 µM; in the assay with SR leukemia, 11.2 µM; in the assay with HCT-15 colon it was 13 µM; with NCI-H460 lung, 27.5 µM. The TGI was determined as 21.3 µM in the assay with SNB-75 CNS; 13.8 µM with T-47D breast; 17.7 µM with MDA-MB-435; 22.3 µM in the assay on OVCAR-5 ovarian; 30.8 µM in the assay on HS 578T breast; 6.45 µM with K-562 leukemia. The figures for the TGI in the assay on SF-539 CNS and in the assay on SF-295 CNS were 12.6 µM and 30.6 µM, respectively.

The TGI is the concentration at which net growth stops. A higher TGI goes with less potent growth arrest.

For the origin of these results see PubChem BioAssay (NCI).
